We go through 16 compounds from PubChem BioAssay (NCI).

Each structure is given as a SMILES string.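 Test compounds were applied to cells in 96-well plates for 48 hours at 5 doses. GI50 marks 50% less growth. At the TGI there is no net growth.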

Some test systems named below: A498 renal; M14 melanoma; MALME-3M melanoma; RPMI-8226 leukemia; SNB-75 CNS; SW-620 colon; TK-10 renal; UACC-62 melanoma; PC-3 prostate.
Holding throughout (experiment): inhibition of tumour cell growth, NCI panel, 48 h

With `C=CCNC(=O)N(CCCCC(NC(C)=O)C(=O)NCc1ccccc1)Cc1ccccc1` (centres undefined), the TGI in the test on A498 renal, with M14 melanoma, in the test with MALME-3M melanoma, with RPMI-8226 leukemia, in the test on SNB-75 CNS and with SW-620 colon was above 100 µM throughout. The TGI in the test with TK-10 renal and in the test with UACC-62 melanoma was above 100 µM in each case.
As for `CCc1ccccc1NC(=O)C1=C(C)NC(C)=C(C(=O)Nc2ccccc2CC)C1c1ccccc1Cl`, the TGI in the test with A498 renal, in the test on M14 melanoma, with MALME-3M melanoma, in the test on RPMI-8226 leukemia, in the test with SNB-75 CNS and with SW-620 colon was above 100 µM in each case. The compound also gave a TGI in the test with TK-10 renal above 100 µM.
For `O/N=C1/C(=C/c2ccc3c(c2)OCO3)CCCC1C(NO)c1ccc2c(c1)OCO2` (centres undefined), the TGI in the test on A498 renal is 79 µM; in the test on M14 melanoma it was 36.9 µM; in the test with MALME-3M melanoma, 48.2 µM; in the test on RPMI-8226 leukemia it was 40.9 µM; in the test with SNB-75 CNS it was 80.1 µM; with SW-620 colon, above 100 µM. Moreover, the TGI in the test with TK-10 renal came to 71.6 µM; in the test on UACC-62 melanoma, 39.8 µM.
For the compound `COc1ccc(/C=N/N=C(\N)NO)cc1O`, the TGI in the test with MALME-3M melanoma was 63.6 µM; in the test on RPMI-8226 leukemia, above 100 µM; in the test with SW-620 colon it was above 100 µM; with UACC-62 melanoma it was above 100 µM.
As to `N.N.N.N.N.NC(=O)c1nn[n-]n1.[Cl-].[Co+3]`, the GI50 in the test on M14 melanoma, in the test with MALME-3M melanoma, in the test with RPMI-8226 leukemia, with SNB-75 CNS, in the test on SW-620 colon and with TK-10 renal was above 100 µM in each case. The GI50 in the test with UACC-62 melanoma is above 100 µM. For the same compound, the TGI in the test with M14 melanoma, in the test on MALME-3M melanoma, in the test on RPMI-8226 leukemia, in the test on SNB-75 CNS, in the test with SW-620 colon and in the test with TK-10 renal was above 100 µM each time. Moreover, the TGI with UACC-62 melanoma was above 100 µM.
As for `CCOC(=O)C12CCCC1(O)N(NC(=O)OC(C)(C)C)C(C)=C2C(=O)OC` (centres undefined), the TGI in the test on A498 renal, in the test with M14 melanoma, in the test on MALME-3M melanoma, with RPMI-8226 leukemia, in the test on SW-620 colon and in the test on TK-10 renal was above 100 µM each time. In the test with UACC-62 melanoma, this compound registered a TGI above 100 µM.
For `O=C1CC(O)CC(=O)C1=C(O)CCCCCCCCCCc1ccccc1` (centres undefined), the TGI in the test on M14 melanoma, with RPMI-8226 leukemia, in the test on SNB-75 CNS, with SW-620 colon, with TK-10 renal and in the test with UACC-62 melanoma was above 100 µM in each case.
Turning to `COC(=O)CC1C[C@H](C#N)N(C(=O)c2ccccc2)C[C@@H]1CC[N+](=O)[O-]` (some centres undefined), the TGI in the test with A498 renal, with M14 melanoma, in the test with MALME-3M melanoma, with RPMI-8226 leukemia, in the test with SNB-75 CNS and in the test with SW-620 colon was above 100 µM in each case. Besides, the TGI in the test on TK-10 renal and with UACC-62 melanoma was above 100 µM each time.
With `CC1=C(C(=O)Nc2cc(=O)n(C)c(=O)n2C)C(c2ccco2)C(C(=O)Nc2cc(=O)n(C)c(=O)n2C)=C(C)N1`, the TGI in the test with A498 renal, in the test with M14 melanoma, with MALME-3M melanoma, in the test with RPMI-8226 leukemia, in the test with SNB-75 CNS and in the test on SW-620 colon was above 100 µM throughout. In addition, the TGI in the test on TK-10 renal is above 100 µM.
Regarding `COC(=O)NC(=O)c1cn(C2OC(CO)C(O)C2O)c(=O)[nH]c1=O` (centres undefined), the TGI in the test with M14 melanoma, with MALME-3M melanoma, in the test on RPMI-8226 leukemia, in the test on SNB-75 CNS, in the test with SW-620 colon and in the test with TK-10 renal was above 100 µM throughout. This compound also showed a TGI in the test on UACC-62 melanoma above 100 µM.
In the case of `Cc1cc(CC(=O)NCCO)n(CCO)c(=O)c1`, the TGI in the test on M14 melanoma, in the test on MALME-3M melanoma, with SNB-75 CNS, with SW-620 colon, in the test with TK-10 renal and with UACC-62 melanoma was above 100 µM each time.
For `O=C(O)CCN(CCCCN(CCC(=O)O)CCC(=O)O)CCC(=O)O`, the TGI with A498 renal, in the test on M14 melanoma, in the test with MALME-3M melanoma, in the test on RPMI-8226 leukemia, with SNB-75 CNS and in the test on SW-620 colon was above 100 µM each time. The TGI with TK-10 renal and in the test on UACC-62 melanoma was above 100 µM throughout.
As to `COC(=O)c1ccc(-c2nc3cc(Cl)c(Cl)cc3nc2C#N)cc1`, the GI50 in the test on A498 renal, with M14 melanoma, in the test with MALME-3M melanoma, in the test on PC-3 prostate, in the test with SNB-75 CNS and in the test on SW-620 colon was above 100 µM in each case. For the same compound, the GI50 with TK-10 renal and with UACC-62 melanoma was above 100 µM each time. For the same compound, the TGI with A498 renal, in the test with M14 melanoma, in the test with MALME-3M melanoma, with PC-3 prostate, with SNB-75 CNS and with SW-620 colon was above 100 µM in each case. Besides, the TGI in the test with TK-10 renal and with UACC-62 melanoma was above 100 µM each time.
`NC(=O)C(=O)N/N=C1\C(=O)N(c2ccc(Cl)cc2Cl)C(=O)C1C(=O)Nc1ccc(Cl)cc1Cl` (centres undefined): the TGI with A498 renal, in the test with M14 melanoma, with MALME-3M melanoma, in the test on RPMI-8226 leukemia, in the test with SNB-75 CNS and in the test with SW-620 colon was above 100 µM throughout. The TGI in the test with TK-10 renal and with UACC-62 melanoma was above 100 µM in each case.
For `CC1=C(c2ccccc2)C(c2ccccc2)=C(c2ccccc2)C2(c3ccccc3)C(=O)C(C)CN12` (centres undefined), the TGI with A498 renal is above 100 µM; in the test on M14 melanoma, above 100 µM; in the test with MALME-3M melanoma it was above 100 µM; in the test with RPMI-8226 leukemia, above 100 µM; in the test with SNB-75 CNS, 64.5 µM; with SW-620 colon it was above 100 µM. The compound further registered a TGI in the test on UACC-62 melanoma above 100 µM.
On to `COc1ccc(C23C(=O)c4ccccc4N2O[C@H]2C(=O)N(c4ccccc4)C(=O)[C@H]23)cc1` (some centres undefined), for which the TGI in the test on A498 renal, in the test on M14 melanoma, with MALME-3M melanoma, in the test with RPMI-8226 leukemia, with SNB-75 CNS and in the test on SW-620 colon was above 100 µM in each case. Besides, the TGI in the test with TK-10 renal and in the test with UACC-62 melanoma was above 100 µM throughout.
